Key:
Experiment in all cases: Cell proliferation assay (Alamar Blue)
Format in all cases: cell-based
[1] = tested on: HCT-116; conditions: Homo sapiens, 96 h, HCT-116 cells, four days;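 also: fluorescence of unreduced Alamar Blue read roughly 4 h after dye addition, with wells given medium instead of compound serving as controls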
[2] = tested on: Hs578T; conditions: Homo sapiens, Hs-578T, 96 h, Hs578T cells, four days
Procedure, shortened: (§1)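 Cells plated at 4,000-5,000 per well, then exposed to compound for four days at 37°C, 5% CO2. Alamar Blue added for a further 4 h; fluorescence read at ex 544/em 590 nm. Medium-only wells served as blank, cells without compound as untreated control.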

[3] = tested on: MiaPaCa; conditions: Homo sapiens, MIA PaCa-2, 96 h, MiaPaCa cells, four days
Procedure, shortened: as §1

[4] = tested on: Jurkat; conditions: Homo sapiens, 96 h, Jurkat cells, four days
Procedure, shortened: as §1

[5] = tested on: PC3; conditions: Homo sapiens, PC-3, 96 h, PC3 cells, four days
Procedure, shortened: as §1

[6] = tested on: H1299; conditions: Homo sapiens, NCI-H1299, 96 h, H1299 cells, four days
Procedure, shortened: as §1

[7] = tested on: A375; conditions: Homo sapiens, A-375, 96 h, A375 cells, four days
Procedure, shortened: as §1

[8] = tested on: K-562; conditions: Homo sapiens, K562, 96 h, K-562 cells, four days
[9] = tested on: LNCaP; conditions: Homo sapiens, 96 h, LNCaP cells, four days
Procedure, shortened: as §1

[10] = tested on: MDAMB231; conditions: Homo sapiens, MDA-MB-231, 96 h, MDAMB231 cells, four days
Procedure, shortened: as §1

[11] = tested on: MCF-7; conditions: Homo sapiens, MCF7, 96 h, MCF-7 cells, four days
Procedure, shortened: as §1

[12] = tested on: A549; conditions: Homo sapiens, 96 h, A549 cells, four days
Procedure, shortened: as §1

[13] = tested on: HL-60; conditions: Homo sapiens, 96 h, HL-60 cells, four days
Procedure, shortened: as §1

[14] = tested on: Raji; conditions: Homo sapiens, 96 h, Raji cells, four days
Procedure, shortened: as §1

SMILES: O=C(O)c1ccc2c(c1)nc(Nc1ccccc1)c1ccncc12 [drawing 286]
- IC50 [1]: 13.3 µM
- IC50 [2]: 14.9 µM
- IC50 [3]: 7.51 µM
- IC50 [4]: 23.7 µM
- IC50 [5]: 15.4 µM
- IC50 [6]: 6.84 µM
- IC50 [7]: 18.4 µM

SMILES: O=C(O)c1ccc2c(c1)nc(Nc1ccc(F)c(Cl)c1)c1ccncc12 [drawing 291]
- IC50 [1]: 4.34 µM
- IC50 [2]: 3.31 µM
- IC50 [3]: 3.06 µM
- IC50 [4]: 2.68 µM
- IC50 [5]: 4.86 µM
- IC50 [6]: 3.08 µM
- IC50 [7]: 3.21 µM

SMILES: O=C(O)c1ccc2c(c1)nc(Nc1cccc(Cl)c1)c1ccncc12 [drawing 299]
- IC50 [1]: 4.02 µM
- IC50 [2]: 0.67 µM
- IC50 [3]: 2.74 µM
- IC50 [4]: 2.37 µM
- IC50 [5]: 1.51 µM
- IC50 [6]: 3.08 µM
- IC50 [7]: 3.95 µM

SMILES: O=C(O)c1ccc2c(c1)nc(Nc1cc(F)cc(F)c1)c1ncncc12 [drawing 301]
- IC50 [1]: 4.06 µM
- IC50 [2]: 5.9 µM
- IC50 [3]: 0.85 µM
- IC50 [4]: 2.59 µM
- IC50 [5]: 7.5 µM
- IC50 [6]: 6.62 µM
- IC50 [7]: 2.63 µM

SMILES: O=C(O)c1ccc2c(c1)nc(Nc1cccc(F)c1)c1ncncc12 [drawing 302]
- IC50 [1]: 7.1 µM
- IC50 [2]: 3.43 µM
- IC50 [3]: 3.36 µM
- IC50 [4]: 1.89 µM
- IC50 [5]: 4.71 µM
- IC50 [6]: 7.24 µM
- IC50 [7]: 5.11 µM

SMILES: O=C(O)c1ccc2c(c1)nc(Nc1cccc(Cl)c1)c1ncncc12 [drawing 303]
- IC50 [1]: 7.19 µM
- IC50 [2]: 11.2 µM
- IC50 [3]: 2.09 µM
- IC50 [4]: 0.88 µM
- IC50 [5]: 9.14 µM
- IC50 [6]: 3.01 µM
- IC50 [7]: 5.45 µM

SMILES: C#Cc1cccc(Nc2nc3cc(C(=O)O)ccc3c3cncnc23)c1 [drawing 304]
- IC50 [1]: 5.86 µM
- IC50 [2]: 2.86 µM
- IC50 [3]: 0.67 µM
- IC50 [4]: 1.8 µM
- IC50 [5]: 3.13 µM
- IC50 [6]: 1.55 µM
- IC50 [7]: 4.12 µM

SMILES: CNc1ncc2c(n1)c(Nc1ccccc1)nc1cc(C(=O)O)ccc12 [drawing 307]
- IC50 [1]: 2.99 µM
- IC50 [2]: 1.84 µM
- IC50 [3]: 1.09 µM
- IC50 [4]: 0.73 µM
- IC50 [5]: 3.14 µM
- IC50 [6]: 2.42 µM
- IC50 [7]: 1.92 µM

SMILES: O=C(O)c1ccc2c(c1)nc(Nc1ccc(Cl)cc1)c1ccncc12 [drawing 308]
- IC50 [1]: 6.72 µM
- IC50 [2]: 6.64 µM
- IC50 [3]: 2.7 µM
- IC50 [4]: 2.53 µM
- IC50 [5]: 8.63 µM
- IC50 [6]: 1.94 µM
- IC50 [7]: 4.8 µM

SMILES: C#Cc1cccc(Nc2nc3cc(C(=O)O)ccc3c3cnccc23)c1 [drawing 309]
- IC50 [2]: 4.03 µM
- IC50 [3]: 3.85 µM
- IC50 [4]: 2.78 µM
- IC50 [5]: 16.8 µM
- IC50 [6]: 3.65 µM
- IC50 [7]: 7.36 µM

SMILES: O=C(O)c1ccc2c(c1)nc(Nc1cc(F)cc(F)c1)c1ccncc12 [drawing 311]
- IC50 [1]: 4.33 µM
- IC50 [2]: 9.09 µM
- IC50 [3]: 1.35 µM
- IC50 [4]: 2.41 µM
- IC50 [5]: 10.1 µM
- IC50 [6]: 8.91 µM
- IC50 [7]: 5.4 µM

SMILES: O=C(O)c1ccc2c(c1)nc(Nc1ccccc1)c1ccncc12 [drawing 372]
- IC50 [8]: 4.01 µM
- IC50 [9]: 8.18 µM
- IC50 [10]: 2.66 µM
- IC50 [11]: 10.8 µM
- IC50 [12]: 4.16 µM
- IC50 [13]: 4.86 µM
- IC50 [14]: 13.7 µM

SMILES: O=C(O)c1ccc2c(c1)nc(Nc1ccc(F)c(Cl)c1)c1ccncc12 [drawing 373]
- IC50 [8]: 4.95 µM
- IC50 [9]: 4.57 µM
- IC50 [10]: 6.13 µM
- IC50 [11]: 8.24 µM
- IC50 [12]: 6.83 µM
- IC50 [13]: 1.92 µM
- IC50 [14]: 4.51 µM

SMILES: O=C(O)c1ccc2c(c1)nc(Nc1cccc(Cl)c1)c1ccncc12 [drawing 376]
- IC50 [8]: 2.99 µM
- IC50 [9]: 4.89 µM
- IC50 [11]: 17.7 µM
- IC50 [12]: 6.59 µM
- IC50 [13]: 2.64 µM
- IC50 [14]: 3.32 µM

SMILES: O=C(O)c1ccc2c(c1)nc(Nc1cc(F)cc(F)c1)c1ncncc12 [drawing 377]
- IC50 [8]: 2.41 µM
- IC50 [9]: 1.83 µM
- IC50 [10]: 3.1 µM
- IC50 [11]: 2.02 µM
- IC50 [12]: 24.6 µM
- IC50 [13]: 1.85 µM
- IC50 [14]: 8.47 µM

SMILES: O=C(O)c1ccc2c(c1)nc(Nc1cccc(F)c1)c1ncncc12 [drawing 378]
- IC50 [8]: 1.77 µM
- IC50 [9]: 1.36 µM
- IC50 [10]: 0.84 µM
- IC50 [11]: 1.06 µM
- IC50 [12]: 14.1 µM
- IC50 [13]: 9.68 µM
- IC50 [14]: 4.51 µM

SMILES: O=C(O)c1ccc2c(c1)nc(Nc1cccc(Cl)c1)c1ncncc12 [drawing 379]
- IC50 [8]: 1.13 µM
- IC50 [9]: 1.56 µM
- IC50 [10]: 1.18 µM
- IC50 [11]: 1.79 µM
- IC50 [12]: 28.5 µM
- IC50 [13]: 7.35 µM

From EP2061765B1, “Serine-threonine protein kinase and PARP modulators” (Senhwa Biosciences, Inc., priority 2006, dated 2008)
